Measurements taken from ChEMBL document CHEMBL4130413, “1-Aryl-1H- and 2-aryl-2H-1,2,3-triazole derivatives blockade P2X7 receptor in vitro and inflammatory response in vivo” (Eur J Med Chem, 2017).

Key:
[1] = molecular target: T1, UDP-glucuronosyltransferase 1A1 (Homo sapiens, UniProt P22309); test: Drug metabolism assessed as UGT1A1 (unknown origin)-mediated metabolite formation; assay type: ADME
T1 sequence (P22309 whole entry): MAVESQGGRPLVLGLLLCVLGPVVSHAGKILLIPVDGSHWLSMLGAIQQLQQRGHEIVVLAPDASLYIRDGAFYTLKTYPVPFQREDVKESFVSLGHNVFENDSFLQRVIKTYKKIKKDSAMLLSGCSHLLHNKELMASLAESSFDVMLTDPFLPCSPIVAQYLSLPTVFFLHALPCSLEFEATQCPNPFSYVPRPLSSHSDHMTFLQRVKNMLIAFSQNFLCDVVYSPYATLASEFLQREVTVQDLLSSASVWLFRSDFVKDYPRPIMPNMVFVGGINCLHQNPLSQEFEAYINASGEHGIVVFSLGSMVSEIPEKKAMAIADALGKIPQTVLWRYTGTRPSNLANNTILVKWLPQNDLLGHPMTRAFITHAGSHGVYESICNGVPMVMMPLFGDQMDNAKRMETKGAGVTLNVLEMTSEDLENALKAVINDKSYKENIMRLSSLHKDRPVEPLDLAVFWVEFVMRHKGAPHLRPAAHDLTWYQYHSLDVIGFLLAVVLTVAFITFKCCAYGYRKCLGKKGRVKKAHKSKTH

[2] = molecular target: T2, UDP-glucuronosyltransferase 1A6 (Homo sapiens, UniProt P19224); test: Drug metabolism assessed as UGT1A6 (unknown origin)-mediated metabolite formation; assay type: ADME
T2 sequence (P19224 whole entry): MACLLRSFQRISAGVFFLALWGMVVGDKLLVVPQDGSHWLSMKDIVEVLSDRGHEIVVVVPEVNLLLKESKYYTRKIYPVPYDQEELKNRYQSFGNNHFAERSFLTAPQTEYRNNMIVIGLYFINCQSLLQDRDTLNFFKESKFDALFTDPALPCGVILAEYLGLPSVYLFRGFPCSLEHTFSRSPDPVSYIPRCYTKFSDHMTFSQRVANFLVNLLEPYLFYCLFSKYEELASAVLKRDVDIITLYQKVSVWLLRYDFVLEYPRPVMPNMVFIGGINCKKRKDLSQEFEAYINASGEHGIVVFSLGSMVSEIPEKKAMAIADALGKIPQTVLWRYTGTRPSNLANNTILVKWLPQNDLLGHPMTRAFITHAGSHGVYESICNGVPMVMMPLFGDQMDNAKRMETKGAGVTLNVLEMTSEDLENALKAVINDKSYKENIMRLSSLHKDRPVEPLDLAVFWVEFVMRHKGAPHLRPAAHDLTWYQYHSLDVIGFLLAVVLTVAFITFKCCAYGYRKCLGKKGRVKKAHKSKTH

[3] = molecular target: T3, UDP-glucuronosyltransferase 1A8 (Homo sapiens, UniProt Q9HAW9); test: Drug metabolism assessed as UGT1A8 (unknown origin)-mediated metabolite formation; assay type: ADME
T3 sequence (Q9HAW9 whole entry): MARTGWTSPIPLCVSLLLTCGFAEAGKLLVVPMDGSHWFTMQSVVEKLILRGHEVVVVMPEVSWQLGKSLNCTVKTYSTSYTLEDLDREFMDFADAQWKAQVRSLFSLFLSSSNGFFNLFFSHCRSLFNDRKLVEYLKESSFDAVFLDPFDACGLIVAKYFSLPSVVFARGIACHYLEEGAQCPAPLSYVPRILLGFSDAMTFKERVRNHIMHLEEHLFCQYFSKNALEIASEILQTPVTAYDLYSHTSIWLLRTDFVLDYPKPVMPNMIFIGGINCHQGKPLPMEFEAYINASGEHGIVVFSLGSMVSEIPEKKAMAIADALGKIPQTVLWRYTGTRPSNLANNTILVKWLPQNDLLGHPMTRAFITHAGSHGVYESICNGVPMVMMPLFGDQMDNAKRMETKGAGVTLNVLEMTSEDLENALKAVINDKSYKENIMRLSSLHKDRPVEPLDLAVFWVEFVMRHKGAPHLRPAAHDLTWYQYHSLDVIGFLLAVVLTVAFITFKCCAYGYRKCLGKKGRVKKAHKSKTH

[4] = molecular target: T4, UDP-glucuronosyltransferase 1A4 (Homo sapiens, UniProt P22310); test: Drug metabolism assessed as UGT1A4 (unknown origin)-mediated metabolite formation; assay type: ADME
T4 sequence (P22310 whole entry): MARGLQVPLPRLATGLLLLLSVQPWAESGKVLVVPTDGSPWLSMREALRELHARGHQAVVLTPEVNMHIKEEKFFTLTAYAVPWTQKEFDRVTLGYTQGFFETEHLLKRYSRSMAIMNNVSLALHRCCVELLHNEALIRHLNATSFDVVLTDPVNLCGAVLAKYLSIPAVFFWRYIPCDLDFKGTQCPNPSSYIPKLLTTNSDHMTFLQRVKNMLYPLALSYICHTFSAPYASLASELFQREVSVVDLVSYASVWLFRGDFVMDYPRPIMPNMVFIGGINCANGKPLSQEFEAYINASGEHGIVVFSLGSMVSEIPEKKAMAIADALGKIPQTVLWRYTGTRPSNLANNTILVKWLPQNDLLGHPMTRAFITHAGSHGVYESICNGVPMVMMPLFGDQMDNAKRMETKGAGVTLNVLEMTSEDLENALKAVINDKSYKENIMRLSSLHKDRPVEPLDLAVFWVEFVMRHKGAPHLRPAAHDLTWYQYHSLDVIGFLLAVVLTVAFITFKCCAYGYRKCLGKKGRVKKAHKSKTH

[5] = molecular target: Cytochrome P450 3A4 (Homo sapiens, UniProt P08684)
Cytochrome P450 3A4, sequence (P08684 whole entry): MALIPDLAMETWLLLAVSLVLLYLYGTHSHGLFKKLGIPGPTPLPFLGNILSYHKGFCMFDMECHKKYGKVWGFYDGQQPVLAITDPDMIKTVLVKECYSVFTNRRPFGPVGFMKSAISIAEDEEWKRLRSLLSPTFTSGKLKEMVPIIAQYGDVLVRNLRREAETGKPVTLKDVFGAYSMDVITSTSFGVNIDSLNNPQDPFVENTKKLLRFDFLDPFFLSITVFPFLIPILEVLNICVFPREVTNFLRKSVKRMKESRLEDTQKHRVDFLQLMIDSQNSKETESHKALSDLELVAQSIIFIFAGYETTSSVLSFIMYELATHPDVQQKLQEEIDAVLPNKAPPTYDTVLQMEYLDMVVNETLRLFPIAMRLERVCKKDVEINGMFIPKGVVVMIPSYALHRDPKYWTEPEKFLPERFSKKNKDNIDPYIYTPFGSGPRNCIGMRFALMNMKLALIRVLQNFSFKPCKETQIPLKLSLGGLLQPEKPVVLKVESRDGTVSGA
Description: Drug metabolism assessed as CYP3A4 (unknown origin)-mediated metabolite formation

[6] = molecular target: T5, Cytochrome P450 1A2 (Homo sapiens, UniProt P05177)
T5 sequence (P05177 whole entry): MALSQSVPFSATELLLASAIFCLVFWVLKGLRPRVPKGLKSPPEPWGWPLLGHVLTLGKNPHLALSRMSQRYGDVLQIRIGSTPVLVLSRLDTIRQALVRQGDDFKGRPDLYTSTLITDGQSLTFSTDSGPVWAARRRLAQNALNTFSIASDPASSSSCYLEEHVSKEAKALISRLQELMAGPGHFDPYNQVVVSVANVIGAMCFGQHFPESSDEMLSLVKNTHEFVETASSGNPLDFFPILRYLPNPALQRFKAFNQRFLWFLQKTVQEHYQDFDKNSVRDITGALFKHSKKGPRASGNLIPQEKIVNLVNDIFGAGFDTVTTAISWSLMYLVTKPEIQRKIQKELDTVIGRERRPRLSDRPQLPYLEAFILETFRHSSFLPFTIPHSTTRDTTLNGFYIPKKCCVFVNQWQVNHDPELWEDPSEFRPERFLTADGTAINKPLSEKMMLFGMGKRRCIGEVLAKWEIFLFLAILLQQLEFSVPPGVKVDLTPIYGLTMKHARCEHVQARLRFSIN
Description: Drug metabolism assessed as CYP1A2 (unknown origin)-mediated metabolite formation

| Drug metabolism [1] | Drug metabolism [2] | Drug metabolism [3] | Drug metabolism [4] | Drug metabolism [5] | Drug metabolism [6] | SMILES |
| --- | --- | --- | --- | --- | --- | --- |
| Metabolite_Detected | Metabolite_Detected | Metabolite_Notdetected | Metabolite_Notdetected |  |  | COc1ccc2cc([C@H](C)C(=O)O)ccc2c1 [NAPROXEN] |
| Metabolite_Notdetected | Metabolite_Notdetected | Metabolite_Notdetected | Metabolite_Notdetected | Metabolite_Notdetected | Metabolite_Notdetected | O=C(O)Cc1ccccc1Nc1c(Cl)cccc1Cl [DICLOFENAC] |
| Metabolite_Notdetected | Metabolite_Detected | Metabolite_Notdetected | Metabolite_Notdetected | Metabolite_Notdetected | Metabolite_Notdetected | CC(C)Cc1ccc(C(C)C(=O)O)cc1 (configuration not stated) [IBUPROFEN] |
| Metabolite_Notdetected | Metabolite_Notdetected | Metabolite_Notdetected | Metabolite_Detected | Metabolite_Notdetected | Metabolite_Detected | CCOCc1cn(-c2ccc(Cl)cc2)nn1 |
